The values that follow come from paper PMC9279632 (Acta Pharmaceutica Sinica. B, 2021).

One may read the EC50 as the concentration needed to bring the measured effect to its halfway point. For orientation: IC50 means the midpoint of a concentration-inhibition curve. A high value points to weaker potency in that assay.

Structures are written as SMILES.

The test system of one data set is ZIKV PRVABC59. Put plainly: PFU viral plaque reduction assay in A549 cells. Format: cell-based. Particulars: Zika virus, A549, read-out: EC50 (anti-ZIKV). For orientation: Plaque reduction counts the foci of infection that form in a cell layer.
The target of data set [1] is NS2B−NS3 interactions (NLuc-NS2B49−66 / GST-CLuc-NS3) (Dengue virus type 2, UniProt P29990). Put plainly: Split luciferase complementation. It counts as binding.
NS2B−NS3 interactions (NLuc-NS2B49−66 / GST-CLuc-NS3), sequence (P29990 1476-1660): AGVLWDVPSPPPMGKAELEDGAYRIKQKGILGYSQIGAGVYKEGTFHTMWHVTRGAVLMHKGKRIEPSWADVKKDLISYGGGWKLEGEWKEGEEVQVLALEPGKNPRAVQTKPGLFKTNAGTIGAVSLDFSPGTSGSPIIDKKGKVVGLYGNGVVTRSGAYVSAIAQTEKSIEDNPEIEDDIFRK
In data set [2] the target is T1, NS2B−NS3 protease (His-tagged NS2B / DENV2 NS3-MBP fusion protein) (Dengue virus type 2, UniProt P29990).
T1 sequence (P29990 1476-1653 limits assumed): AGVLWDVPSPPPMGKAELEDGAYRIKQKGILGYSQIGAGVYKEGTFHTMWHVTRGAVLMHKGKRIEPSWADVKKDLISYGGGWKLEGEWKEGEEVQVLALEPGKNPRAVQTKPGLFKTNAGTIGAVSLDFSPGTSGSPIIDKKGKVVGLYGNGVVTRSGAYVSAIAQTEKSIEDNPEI
The data set is described as follows: NS2B−NS3 protease inhibition assay with FRET substrate. Format: biochemical.

Data set [3] concerns 3D mini-forebrain organoid. The data set is described as follows: Toxicity to 3D mini-forebrain organoid. It counts as cell-based, human. Particulars: Fig. S2; organoids fell apart and lost clear boundary.
For data set [4] the following is noted: cited from earlier work.
[5] abbreviates: IC50-SLC (NS2B–NS3 interaction), split luciferase complementation, n = 3.

`O=C1OC2(c3ccccc31)c1ccc(O)c(Cl)c1Oc1c2ccc(O)c1Cl` [JMX0892, 4′,5′-Dichloro-3′,6′-dihydroxy-3H-spiro[isobenzofuran-1,9′-xanthen]-3-one]: the EC50 in the data set on ZIKV PRVABC59 is above 15 µM. The results for the IC50 in data set [1] (IC50-SLC), in data set [1] (setting [5]) and in data set [2] were around 50 µM, 50 µM and above 60 µM, respectively.
Regarding `O=C1OC2(c3ccccc31)c1ccc(O)c(Br)c1Oc1c2ccc(O)c1Br` [JMX0893, 4′,5′-dibromo-3′,6′-dihydroxy-3H-spiro[isobenzofuran-1,9′-xanthen]-3-one], the EC50 in the data set with ZIKV PRVABC59 was above 15 µM. Moreover, the values for the IC50 in data set [1] (setting [5]) and in data set [2] were 16 µM and above 60 µM, respectively.
For the molecule `O=C1OC2(c3cc(Cl)c(O)cc3Oc3cc(O)c(Cl)cc32)c2ccccc21` [JMX0897, 2′,7′-Dichloro-3′,6′-dihydroxy-3H-spiro[isobenzofuran-1,9′-xanthen]-3-one], the EC50 in the data set on ZIKV PRVABC59 was above 15 µM. In addition, the IC50 in data set [1] (IC50-SLC) is around 50 µM; in data set [1] (setting [5]), 48 µM; in data set [2], 23 µM.
As to `O=C1OC2(c3cc(I)c(O)c(I)c3Oc3c2cc(I)c(O)c3I)c2c(Cl)c(Cl)c(Cl)c(Cl)c21` [JMX0902, Sodium 4,5,6,7-tetrachloro-2′,4′,5′,7′-tetraiodo-3-oxo-3H-spiro[isobenzofuran-1,9′-xanthene]-3′,6′-bis(olate)], in the data set with ZIKV PRVABC59, the EC50 is 0.3 µM. In addition, the IC50 worked out at 0.43 µM in data set [1] (setting [5]) and 2.6 µM in data set [2].
The like results for `O=C1OC2(c3ccccc31)c1ccc(O)c(I)c1Oc1c2ccc(O)c1I` [JMX0903, Sodium 4′,5′-diiodo-3-oxo-3H-spiro[isobenzofuran-1,9′-xanthene]-3′,6′-bis(olate)] were, in that order, above 15 µM, 15 µM and 60 µM.
`O=C1OC2(c3ccccc31)c1cc(Br)c(O)c(Br)c1Oc1c2cc(Br)c(O)c1Br` [JMX0911, 2′,4′,5′,7′-tetrabromo-3′,6′-dihydroxy-3H-spiro[isobenzofuran-1,9′-xanthen]-3-one]: the EC50 in the data set on ZIKV PRVABC59 is above 15 µM. The molecule also gave an IC50 in data set [1] (setting [5]) of 3.4 µM.
With `O=C1OC2(c3ccc(O)cc3Oc3cc(O)ccc32)c2ccc(NC(=S)NCCS)cc21` [JMX0912, 1-(3′,6′-Dihydroxy-3-oxo-3H-spiro[isobenzofuran-1,9′-xanthen]-5-yl)-3-(2-mercaptoethyl)thiourea], in the data set on ZIKV PRVABC59, the EC50 is above 15 µM. Besides, the IC50 in data set [1] (IC50-SLC) is above 50 µM; in data set [1] (setting [5]), above 100 µM; in data set [2], 88 µM.
Taken in the same sequence, the figures for `O=C1OC2(c3ccc(O)cc3Oc3cc(O)ccc32)c2ccccc21` [JMX0915, 3′,6′-Dihydroxy-3H-spiro[isobenzofuran-1,9′-xanthen]-3-one] were above 15 µM, above 50 µM, above 100 µM and above 100 µM.
Turning to `O=C(O)c1ccc2c(c1)C(=O)OC21c2ccc(O)cc2Oc2cc(O)ccc21` [JMX0920, 3′,6′-Dihydroxy-3-oxo-3H-spiro[isobenzofuran-1,9′-xanthene]-5-carboxylic acid], the EC50 in the data set with ZIKV PRVABC59 is above 15 µM. Moreover, the IC50 was above 50 µM in data set [1] (IC50-SLC), 53 µM in data set [1] (setting [5]) and above 100 µM in data set [2].
Turning to `Oc1cccc(-c2c3nc(c(-c4cccc(O)c4)c4ccc([nH]4)c(-c4cccc(O)c4)c4nc(c(-c5cccc(O)c5)c5ccc2[nH]5)CC4)C=C3)c1` [temoporfin], in data set [3], the “toxicity to 3D organoids (morphology)” value is listed as “significant toxicity”. Besides, the cellular cytotoxicity entry in data set [4] is reported as “moderate cellular cytotoxicity”.
